Results published in patent US20200023001A1, “GlycoFix (Structurally And Functionally Repaired Endothelial Glycocalyx)” (Northeastern University, priority 2018, published 2020).
Several values for one entry are separate records, joined by “and”; a condition that tells them apart may be missing. Equal entries are not always repeated.

System: HS component of RFPEC glycocalyx
Experiment: HS component thickness and coverage by 10E4 HS immunofluorescence (Example 2)
Type: cell-based, rat
Description: RFPEC Culture. A rat fat pad endothelial cell (RFPEC) line^37 was utilized, originally isolated from rat epididymal fat pads by Dr. Mia Thi of Albert Einstein College of Medicine (Bronx, N.Y., USA). RFPECs were selected for their ability to naturally express a robust glycocalyx.^38 These ECs were cultured in tissue culture flasks at 37° C. and 5% CO2 in a humidified environment with Dulbecco's Modified Eagle's Medium (DMEM) supplemented with 10% fetal bovine serum (FBS) and 1% penicillin-streptomycin, all purchased from Thermo Fisher Scientific (Waltham, Mass., USA). For 3-(4,5-dimethylthiazol-2-yl)-5-(3-carboxymethoxyphenyl)-2-(4-sulfophenyl)-2H-tetrazolium (MTS) assays (Sigma-Aldrich Co., St Louis, Mo., USA), RFPECs were seeded at 3.7×10^4 cells/cm^2 in tissue culture-treated, 96-well plates (Falcon; Thermo Fisher Scientific) and imaged on a SpectraMax M3 plate reader to show cell viability and metabolic activity. For confocal imaging, RFPECs were seeded onto 12-mm diameter round glass cover slips (Thermo Fisher Scientific) at 1×10^4 cells/cm^2 in tissue culture-treated six-well plates (Falcon; Thermo Fisher Scientific). In both cases, the cells were allowed to grow for 48-60 hours to full confluence before starting the experiment.
RFPEC glycocalyx treatments. For control glycocalyx conditions, RFPEC cultures were grown in DMEM with 10% FBS and 1% penicillin-streptomycin. To generate dysfunctional glycocalyx conditions, the regular culture media of other RFPEC cultures was replaced with two variations of the modified media. For the collapsed glycocalyx configuration, the cells were grown in low serum media that consisted of DMEM with 1% penicillin-streptomycin and only 2% FBS.^1 For the degraded glycocalyx configuration, cultures were pretreated with DMEM/10^% FBS/1% penicillin-streptomycin containing a 2.5×10^−6 IU heparinase III (Hep III) (IBEX Pharmaceutical, Montreal, QC, Canada) enzyme for 2 hours, selectively degrading the HS glycosaminoglycans of the glycocalyx. To simulate a repaired glycocalyx state, the media containing Hep III was replaced with exogenous HS (Celsus Laboratories, Cincinnati, Ohio, USA) dissolved in DMEM/10% FBS/1% penicillin-streptomycin at 59 μg/mL. All RFPEC cultures, including those with untreated, collapsed, degraded, or repaired glycocalyx configurations, were exposed to 550 μg/mL of lyophilized and ultraviolet-sterilized PEG-AuNP during the 16-hour treatment time. Afterward, the free-floating particles were gently washed out before fixation to ensure that only the AuNP entrapped within the glycocalyx would be imaged. The red fluorescence detected from conjugated Alexa Fluor 647 was attributed to AuNP within the RFPEC monolayers (details are given in the “Confocal imaging and analysis” section).
Immunostaining. […]

[1] = RFPEC, Hep III 2 h then 16 h, with or without 59 μg/mL HS

For heparan sulfate [HS], the “HS coverage of RFPEC, result in words (FIG. 10F legend)” value was “recovered”, the “HS coverage as % of the baseline measurements” value (Hep III, Hep III + 59 μg/mL HS) was 44% and the HS component thickness [1] was 1.2 μm and 1.21±0.31 μm. The “HS coverage of RFPEC surface” value [1] was 33.1%+3.7%.
